Assays:
Assay type in all cases: physicochemical
[1] = particle size of the comminuted powder (hammer mill); details: comminuted with a hammer mill at about 3,000-3,600 rpm
Procedure: A dry powder sucralfate (as specified in Pharmacopoeia of Japan, JP) was comminuted with a hammer mill at about 3,000-3,600 rpm.

[2] = dispersed particle size (size of particles as dispersed in water), laser diffraction particle size analyzer
Procedure: Each of the samples thus prepared was measured for the dispersed particle size (i.e., the size of particles as dispersed in water) by means of a laser diffraction particle size analyzer (Nikkiso Co., Ltd.); in addition, the samples were analyzed for average size (at 50% cumulative frequency) and the proportion of particles not larger than 50 μm. […]

[3] = specific surface area measurement, nitrogen gas as adsorbate; details: Table 2
Procedure: Each of the samples thus prepared was measured for the dispersed particle size by means of a laser diffraction particle size analyzer; in addition, a specific surface area measurement was conducted before and after the granulation by means of a specific surface area measuring instrument (Shimadzu Corp.) using nitrogen gas as adsorbate.

[4] = Table 2, sucralfate:polyethylene glycol mixing proportions
[5] = Table 2, sucralfate:polyethylene glycol mixing proportions, melt granulated at 300 rpm to 65° C.

In the case of “sucralfate [Comminuted sucralfate powder]”, the “particle size of comminuted powder, in words” value [1] is reported as “entirely composed of particles not larger than 50 μm”, the “Dispersed particle size, Average” value ([2]; Table 1, average size at 50% cumulative frequency, dispersed in water) is reported as 4.4 μm and the “Dispersed particle size, Percent 50 μm and less” value ([2]; Table 1, dispersed in water) is reported as 100.0%. The “Dispersed particle size, Percent 50 μm and less” value [2, 4] was 100.0%, the “Dispersed particle size, Average” value [2, 5] was 4.4 μm and the Specific surface area [3] was 5.1 m^2 /g.

With sucralfate [Sucralfate of JP] the “Dispersed particle size, Percent 50 μm and less” value [2, 4] was 86.2%, the “Dispersed particle size, Average” value [2, 5] was 18.6 μm and the Specific surface area [3] was 1.6 m^2 /g.
